Test results taken from patent US10413535B2, “Pharmaceutical compositions comprising an integrin ALPHA4 antagonist for use in treating ocular inflammatory conditions” (AXEROVISION, INC., priority 2015, dated 2019).

Assays:
[1] = test system: RPMI 8866 binding to VCAM-1; assay: VCAM cell adhesion assay, RPMI 8866 cells; assay type: cell-based; settings: Homo sapiens; RPMI 8866 cells to VCAM-1; read-out: Inhibition of cell adhesion (IC50)
Description: (§1) Jurkat J6 cells (human lymphoblast cell line) were grown as a suspension culture in RPMI 1640 supplemented with FCS (10%) and glutamine (2 mM). RPMI8866 cells (human B lymphoid cell line) were grown as a suspension culture in RPMI 1640 supplemented with FCS (10%) and glutamine (2 mM). RBL-2H3 cells (rat basophilic cell line) were cultured in Eagle's MEM plus Earles salts supplemented with 2 mM L-glutamine, 1 mM sodium pyruvate, 1× non-essential amino acids, 1 mM Na pyruvate 10% heat inactivated foetal calf serum.
Polystyrene 96-well microtitre plates were coated with IgG at a concentration of 0.05 mg/mL in bicarbonate buffer for 2 hours at 37° C. The solution was aspirated and the plates washed twice with PBS. The plates were then incubated overnight at 4° C. with a 1:4000 dilution of VCAM-1 of 3% BSA in PBS. Prior to use the VCAM-1 was aspirated and the plates washed twice with PBS.
J6 or RPMI cells (as required) were labelled with the fluorescent dye BCECF-AM (10 μM and 6×10^6 cells/mL) for 10 min at 37° C. before the excess was removed by centrifugation at 500 g for 5 min and the cells resuspended at a cell concentration of 1.2×10^7 cells/mL in HBSS. Equal volumes HBSS containing the compound of formula I (over concentration range 38.1 pM to 10 μM) and cells were added to the VCAM-1 coated plates. […] The plates were counted in a Wallac Viktor.

conjunctival CD4 T cells = assay: Conjunctival T cell infiltration (CD4 immunohistochemistry), desiccating stress model; assay type: in vivo, mouse; settings: topical 30 mg/mL, 60 μg per eye, 5 days DS
Description: Female C57BL/6 mice, aged 6 to 8 weeks, were subjected to DS for 5 days (DS5) as described previously (de Paiva et al., 2006b; Niederkorn et al., 2006). Topical bilateral treatment with 1 eye drop per eye (2 μL volume) or subcutaneous injection (4 μL volume), 2 times per day, was initiated on day 1 concurrently with DS and continued through day 4. Treatment with the compound of formula I or dexamethasone phosphate 0.1% was compared to correspondingly treated vehicle controls. Mice were randomized to receive one of the test articles. […] Treatment effects were assessed on corneal staining with Oregon Green Dextran (OGD); expression of inflammatory markers in ocular surface tissues by real time PCR; cell population analysis in draining cervical lymph nodes by FACS analysis; conjunctival T cell infiltration by immunohistochemistry.
For immunohistochemistry, the eyes and adnexa of 5 mice/group (n=5) were excised, embedded in optimal cutting temperature (OCT compound; VWR, Suwanee, Ga.), and flash frozen in liquid nitrogen. […] Positively stained cells were counted in the goblet cell rich area of the conjunctiva, over a length of at least 500 μm in the epithelium for a distance of 500 μm using image-analysis software (NIS Elements Software, version 3.0, BR, Nikon). […]

Rat α4β1 = biological target: T1, Rat α4β1 (Rattus norvegicus, UniProt D3ZMQ3+P49134); assay: Saturation binding assay in RBL-2H3 cells (SPA); settings: [3H]GW559090, RBL-2H3 cells
T1 construct: rat RBL-2H3 cells which express rat α4β1; endogenous in cells; host or cells: RBL-2H3 cells (rat basophilic cell line)
T1 sequence (D3ZMQ3 1-1036): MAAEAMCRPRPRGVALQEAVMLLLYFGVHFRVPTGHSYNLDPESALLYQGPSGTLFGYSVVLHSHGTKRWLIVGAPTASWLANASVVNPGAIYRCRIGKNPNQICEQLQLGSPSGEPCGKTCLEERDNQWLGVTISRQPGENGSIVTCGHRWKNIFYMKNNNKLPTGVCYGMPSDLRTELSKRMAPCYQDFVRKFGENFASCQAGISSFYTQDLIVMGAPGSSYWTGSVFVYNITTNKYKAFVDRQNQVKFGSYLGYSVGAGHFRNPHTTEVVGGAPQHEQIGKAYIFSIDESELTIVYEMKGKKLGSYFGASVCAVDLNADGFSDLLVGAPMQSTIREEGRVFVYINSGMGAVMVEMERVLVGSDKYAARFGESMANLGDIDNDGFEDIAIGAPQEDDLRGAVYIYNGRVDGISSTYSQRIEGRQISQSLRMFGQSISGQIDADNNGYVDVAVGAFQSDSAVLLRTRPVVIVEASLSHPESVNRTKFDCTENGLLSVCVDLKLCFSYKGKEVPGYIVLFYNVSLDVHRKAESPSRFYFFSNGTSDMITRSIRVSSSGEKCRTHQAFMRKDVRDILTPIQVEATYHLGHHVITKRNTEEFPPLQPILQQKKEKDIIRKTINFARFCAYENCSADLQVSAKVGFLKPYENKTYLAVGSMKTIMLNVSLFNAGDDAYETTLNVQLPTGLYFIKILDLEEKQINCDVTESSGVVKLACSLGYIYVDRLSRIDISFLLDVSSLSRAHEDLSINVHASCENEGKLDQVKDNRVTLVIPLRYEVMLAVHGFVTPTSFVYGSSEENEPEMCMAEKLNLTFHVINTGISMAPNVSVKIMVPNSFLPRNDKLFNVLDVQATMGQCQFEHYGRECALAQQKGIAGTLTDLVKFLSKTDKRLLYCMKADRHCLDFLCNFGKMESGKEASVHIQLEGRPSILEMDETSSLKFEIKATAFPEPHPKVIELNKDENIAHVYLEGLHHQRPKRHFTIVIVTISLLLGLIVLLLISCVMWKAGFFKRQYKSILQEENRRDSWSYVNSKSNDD
T1 sequence (P49134 21-799): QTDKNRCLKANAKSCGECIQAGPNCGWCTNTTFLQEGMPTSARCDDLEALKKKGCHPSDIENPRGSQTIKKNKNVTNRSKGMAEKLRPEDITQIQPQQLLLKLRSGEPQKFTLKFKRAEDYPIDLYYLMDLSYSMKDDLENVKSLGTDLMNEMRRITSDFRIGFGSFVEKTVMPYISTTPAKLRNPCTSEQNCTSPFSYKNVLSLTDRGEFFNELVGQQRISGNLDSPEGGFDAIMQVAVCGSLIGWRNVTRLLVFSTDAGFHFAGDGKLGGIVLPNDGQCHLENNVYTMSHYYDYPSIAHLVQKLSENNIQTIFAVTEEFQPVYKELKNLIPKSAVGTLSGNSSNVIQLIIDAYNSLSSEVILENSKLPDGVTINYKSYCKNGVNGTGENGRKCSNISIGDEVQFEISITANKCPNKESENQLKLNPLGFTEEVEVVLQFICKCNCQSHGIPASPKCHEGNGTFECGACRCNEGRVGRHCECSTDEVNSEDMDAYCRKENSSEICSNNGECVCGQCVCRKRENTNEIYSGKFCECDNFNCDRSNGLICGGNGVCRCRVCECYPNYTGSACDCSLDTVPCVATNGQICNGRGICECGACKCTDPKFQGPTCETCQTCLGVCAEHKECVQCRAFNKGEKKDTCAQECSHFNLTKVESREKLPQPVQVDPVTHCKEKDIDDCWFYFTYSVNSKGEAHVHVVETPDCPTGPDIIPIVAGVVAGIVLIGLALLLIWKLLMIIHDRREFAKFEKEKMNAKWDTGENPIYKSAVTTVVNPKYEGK
Description: as §1
The assay buffer contained 50 mM HEPES, 100 mM NaCl, 1 mM MnCl2, pH 7.5 (with NaOH). WGA SPA beads were used at 1 mg/well. Cells were harvested and resuspended in assay buffer and 1 million cells were added per well in a white bottomed plate. Cold GW559090 to give a final assay concentration of 20 μM (to define nonspecific binding) or buffer alone were added and then [3H] GW559090 across a concentration range across the plate was added (nominal [3H] GW559090 concentration range was 0.01 to 200 nM). The final assay volume was 250 μL. The plate was then incubated at 37° C. for 2 h. Disintegrations were counted by scintillation (from the WGA SPA beads) in a Wallac Microbeta plate reader.
The actual amount of [3H] GW559090 added for each concentration of the saturation curve was measured by counting disintegrations per minute from a 50 μL aliquot of the label dilution range.

Compound: Cc1ccccc1OCC(=O)N[C@@H](CC(C)C)C(=O)N[C@@H](Cc1ccc(OC(=O)N2CCC(C(N)=O)CC2)cc1)C(=O)O [GW559090, (2S)-3-[4-({[4-(Aminocarbonyl)-1-piperidinyl]carbonyl}oxy)phenyl]-2-[((2S)-4-methyl-2-{[2-(2-methylphenoxy)acetyl]amino}pentanoyl)amino]propanoic acid]
- IC50 [1]: 4.81 nM
- Conjunctival T cell infiltration (cell density) (conjunctival CD4 T cells): decreases
- Kd (Rat α4β1): 1.04 nM
